Source: PMC7321103, “In Vitro Metabolic Transformation of Pharmaceuticals by Hepatic S9 Fractions from Common Carp (Cyprinus carpio)” (Molecules, 2020)
Like-named read-outs stand apart in the source and are kept apart here. Values belong to the compound of their own block, whether it stands above or below them.

What was measured:
[1] = tested on: common carp hepatic S9 fraction; assay: Metabolite formation in common carp hepatic S9 fraction (not induced and BNF induced); format: in vitro ADME, common carp (Cyprinus carpio); details: for Metabolites Concentration, BNF Fish S9: carp induced with 50 mg/kg BNF; for Metabolites Concentration, BNF Fish S9 / Metabolites Concentration, Fish S9: 2 µM parent pharmaceutical, 1 h, 21 °C; for Metabolites Concentration, Fish S9: not induced carp, 1 mg protein
Procedure: Fish. Fish were collected from a fishpond with a low concentration level of pharmaceuticals (305-880 ng/POCIS). Thus, fish were stocked in the pond for 1 year with a natural photoperiod. The fish were allowed to eat and swim freely in the pond without interaction with humans and avoiding stress conditions. In total, 1-year-old common […] = 12) weighing 695 ± 116 g (mean ± standard deviation) and length 330 ± 19 mm were collected during spring 2018. Additionally, β-naphtaflavone (BNF) was administrated into four fish at levels of 50 mg/kg of BNF in corn oil. Following administration, individuals were kept in a separate aquaria for 48 h, in order to achieve CYP1A1 induction. The fish were then sacrificed according to the ethical rules of the EU harmonized Animal Welfare Act of the Czech Republic. The unit is licensed (No. 53100/2013-MZE-17214), according to the Czech National Directive (the Law against Animal Cruelty, No. 246/1992). Before sampling, fish were anesthetized in an ice bath, and their spinal cords were immediately cut. Fish was bloodless and hepatic tissues were collected and stored at -80 °C before use for the preparation of S9 fraction. Hepatic tissue (approx. 1.2 g) of twelve individual common […] two individual sheep were homogenized in 10 mM Tris-HCl buffer, pH 7.4, containing 250 mM sucrose separately using an T-25 Ultra Turrax homogenizer Ika (Staufen, Germany) followed by centrifugation at 10,000× g for 15 min at 4 °C to obtain S9 fractions. The protein concentration in S9 fractions was determined by the colorimetric method according to Smith et al. at 595 nm. The S9 fractions were diluted to 10 mg/mL protein content. To account for the gender effect, four piscine S9 fractions were combined in one pool with the same ratio of males/females (1:1). The incubations were performed using three S9 pools from common carp. One pool was prepared from ovine S9 fractions. […] According to Hou et al. […] The concentrations of the parent compound and its main metabolites (metoprolol acid, N-desmethylcitalopram, norsertraline, and O-desmethylvenlafaxine) were determined by LC HRMS (Thermo Fisher Scientific, San Jose, CA, USA). The chromatographic separation was performed on a Hypersil Gold aQ analytical column (50 × 2.1 mm; 5 μm particles, Thermo Fisher Scientific). […] A heated electrospray ionization (HESI) source was used for the ionization of the target compounds with a spray voltage of 3.5 kV and nitrogen as the sheath gas (40 arbitrary units), auxiliary gas (10 arbitrary units), and collision gas. The full scan mode with high resolution (70000 FWHM) in range 100-750 m/z was used with the AGC target 3e6, and the maximum filling time 50 ms. Data acquisition was performed with Xcalibur 4.3 Software, and data processing was performed using TraceFinder 3.3 Software (both Thermo Fisher Scientific, San Jose, CA, USA). Internal standard and matrix matching standard methods were used for the quantification of target analytes.

[2] = tested on: sheep hepatic S9 fraction; assay: Metabolite formation in sheep hepatic S9 fraction; format: in vitro ADME; details: 2 µM parent pharmaceutical, 1 mg protein, 1 h, 37 °C
Procedure: Sheep. Hepatic tissue from one male and one female Suffolk sheep (age, 2 years; weight 70-80 kg) were collected at a slaughterhouse in Vodňany town, Czech Republic, and stored at -80 °C. Sheep is a relatively new animal model, which has started to be used in veterinarian investigations related to drug-drug interactions, as well as for effective therapy and the limitation of drug-resistance development. Sheep phase I biotransformation enzymes, including CYPs-dependent metabolic activities in sheep liver, were already characterized by Szotakova et al., Maté et al. and Stuchlíková et al.. The use of the S9 fraction from sheep hepatic tissue could represent the mammalian metabolic system in relation to selected pharmaceuticals. […] The protein concentration in S9 fractions was determined by the colorimetric method according to Smith et al. at 595 nm. […] The concentrations of the parent compound and its main metabolites (metoprolol acid, N-desmethylcitalopram, norsertraline, and O-desmethylvenlafaxine) were determined by LC HRMS (Thermo Fisher Scientific, San Jose, CA, USA). […] Internal standard and matrix matching standard methods were used for the quantification of target analytes.

[3] = Kinetics of N-desmethylcitalopram formation from citalopram in common carp S9; format: in vitro ADME, common carp (Cyprinus carpio); details: common carp (Cyprinus carpio), hepatic S9 fraction, Michaelis-Menten fit, citalopram 0.01-100 μM
Procedure: (§1) Kinetic analysis using multiple substrate concentrations was conducted only with citalopram using the same procedure as above-described. The substrate concentrations were 0.01, 0.03, 0.1, 1, 10, 50, 75, and 100 μM of citalopram.
(§2) The data were analyzed using non-linear regression analysis (GraphPad Prism version 4.0 for Windows, GraphPad Software, San Diego, CA, USA). The data were fitted to the Michaelis-Menten equation and two enzyme models. The goodness of fit was assessed by comparison of the coefficient of determination (r^2). Visual analysis of Eadie-Hofstee plots was used to estimate whether one or more enzymes participate in the reaction.

[4] = tested on: common carp hepatic S9 fraction; assay: as above; format: in vitro ADME, common carp (Cyprinus carpio); details: Michaelis-Menten fit, citalopram 0.01-100 μM
Procedure: as §1, §2

human hepatic microsomes = tested on: human hepatic microsomes; design: method as in PMID 10494454; details: cited from earlier work
[5] = design: method as in PMID 29729738; details: fish from pond receiving WWTP water; cited from earlier work
[6] = Control incubation of pharmaceutical without S9 fraction; details: 2 µM parent pharmaceutical, no S9, 1 h
Procedure: To investigate the formation of metabolites, one concentration of pharmaceutical (2 μM) was incubated with 1 mg of protein in piscine or ovine S9 fraction, 1 mM NADPH, and 0.3 mM UDPGA in a potassium phosphate buffer (50 mM, 7.4 pH) (Table 2). The total volume of each incubation was 0.5 mL. The incubation mixture was vortexed and incubated for 1 h in a water bath (at 21 °C for fish and 37 °C for ovine). Then, the reaction was stopped by the addition of 0.5 mL ice-cold methanol, vortexed, and centrifuged at 10,000× g for 10 min. […] Sheep hepatic S9 fraction was used as a positive control, because sheep S9 fractions are known to metabolise the studied compounds. […] The supernatant was filtrated (0.45 μm regenerated cellulose filter) and the internal standard for chemical analyses was added. […] S9 fractions with TNBP were incubated under the same conditions as other pharmaceuticals.

CYP1A1 = assay: Inhibition of N-desmethylcitalopram formation by ellipticine in common carp S9; format: biochemical, common carp (Cyprinus carpio); details: citalopram 5 μM
Procedure: Ellipticine (a specific inhibitor of mammalian and piscine CYP1A1) was used to investigate if CYP1A1 was responsible for metabolite formation. Incubations were performed only with citalopram. Three concentrations of ellipticine were used in the final incubations: 0.125, 1.25, and 12.5 μM. The choice of these concentrations was based on the previous results. The degree of inhibition was assessed by comparison of metabolite formation in the presence and absence of inhibitor. The incubation without inhibitor contained the same amount of methanol as in the incubations with inhibitor (0.5% from total incubation volume).

CYP1A = tested on: CYP1A; design: method as in PMID 29704845; details: rainbow trout microsomal fraction; cited from earlier work
CYP3A-like = tested on: CYP3A-like; design: method as in PMID 29704845; details: rainbow trout microsomal fraction; cited from earlier work

Compound: CN(C)CCCC1(c2ccc(F)cc2)OCc2cc(C#N)ccc21 (stereo not shown) [citalopram, Citalopram]
Vmax of citalopram N-demethylation, first enzyme (human hepatic microsomes; biphasic model): 25 pmol/min/mg
Vmax of citalopram N-demethylation, second enzyme (human hepatic microsomes; biphasic model): 158 pmol/min/mg
Km (human hepatic microsomes; biphasic model, read-out: Km of citalopram N-demethylation, first enzyme): 17.3 µM
Km (human hepatic microsomes; biphasic model, read-out: Km of citalopram N-demethylation, second enzyme): 185 µM
Average concentration in hepatic tissue of common carp [5]: 3.1 ± 2.9 ng/g wet weight

Compound: Cc1c2ccncc2c(C)c2c1[nH]c1ccccc12 [ellipticine]
Reduction of N-desmethylcitalopram formation (CYP1A1; 0.125 μM ellipticine): 30 ± 10%
Inhibition of N-desmethylcitalopram formation (CYP1A1; 1.25 μM ellipticine): completely inhibited
Inhibition of N-desmethylcitalopram formation (CYP1A1; 12.5 μM ellipticine): completely inhibited

Compound: COc1ccc(C(CN(C)C)C2(O)CCCCC2)cc1 (stereo not shown) [venlafaxine]
Effect on EROD activity (CYP1A): did not alter
Effect on BFCOD activity (CYP3A-like): did not alter

Now from value to compound, other results behind:

Metabolite formation, fold reduction in induced fish vs not induced S9 fraction [1]: 3.4 fold
Compound: CC(C)NCC(O)COc1ccc(CC(=O)O)cc1 (stereo not shown) [Metoprolol acid, metoprolol acid]

Metabolites Concentration, Sheep S9 [2]: 2309 pmol/min/mg
Metabolite formation, fold higher in induced fish than in not induced S9 fraction ([1]; BNF induced vs not induced carp S9): 5.3 fold
Metabolites Concentration, BNF Fish S9 [1]: 1557 pmol/min/mg
Metabolites Concentration, Fish S9 [1]: 295 pmol/min/mg
Km [3]: 29.7 ± 4.6 µM
Metabolites Concentration, Control (without S9) [6]: <LOQ
Compound: CNCCCC1(c2ccc(F)cc2)OCc2cc(C#N)ccc21 (stereo not shown) [N-desmethylcitalopram]
Vmax of N-desmethylcitalopram formation [4]: 1781 ± 90 pmol/min/mg
Vmax for N-desmethylcitalopram, monophasic model (human hepatic microsomes; monophasic model): 183 to 281 pmol/min/mg
Average concentration in hepatic tissue of common carp [5]: 2.6 ± 1.4 ng/g wet weight

Metabolite formation, fold higher in induced fish than in not induced S9 fraction [1]: 1.7 fold
Compound: N[C@H]1CC[C@@H](c2ccc(Cl)c(Cl)c2)c2ccccc21 [Norsertraline, norsertraline]

Metabolites Concentration, Sheep S9 [2]: 823 pmol/min/mg
Metabolites Concentration, BNF Fish S9 [1]: <LOQ
Metabolites Concentration, Fish S9 [1]: <LOQ
Metabolites Concentration, Control (without S9) [6]: <LOQ
Compound: CN(C)CC(c1ccc(O)cc1)C1(O)CCCCC1 (stereo not shown) [O-desmethylvenlafaxine]
